Data: ChEMBL document CHEMBL1201862, “PubChem BioAssay data set” (2004)
Calls of active or inactive are those of the source.

Columns and labels:
[1] = target: G-protein coupled receptor 55 (Homo sapiens, UniProt Q9Y2T6); test: GPR55 antagonists blocking LPI-driven arrestin recruitment, primary screen, imaging, U2OS, beta-arrestin-GFP, LPI agonist (AID 2013); type: functional;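 note: antagonist potency measured as reduced agonist-driven arrestin aggregation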
Large T antigen = Large T antigen (Simian virus 40, UniProt P03070); type: functional, Betapolyomavirus macacae;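 note: Confirmatory-stage PubChem screen for compounds that inhibit SV40 T antigen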
Chain of Large T antigen (P03070 whole entry): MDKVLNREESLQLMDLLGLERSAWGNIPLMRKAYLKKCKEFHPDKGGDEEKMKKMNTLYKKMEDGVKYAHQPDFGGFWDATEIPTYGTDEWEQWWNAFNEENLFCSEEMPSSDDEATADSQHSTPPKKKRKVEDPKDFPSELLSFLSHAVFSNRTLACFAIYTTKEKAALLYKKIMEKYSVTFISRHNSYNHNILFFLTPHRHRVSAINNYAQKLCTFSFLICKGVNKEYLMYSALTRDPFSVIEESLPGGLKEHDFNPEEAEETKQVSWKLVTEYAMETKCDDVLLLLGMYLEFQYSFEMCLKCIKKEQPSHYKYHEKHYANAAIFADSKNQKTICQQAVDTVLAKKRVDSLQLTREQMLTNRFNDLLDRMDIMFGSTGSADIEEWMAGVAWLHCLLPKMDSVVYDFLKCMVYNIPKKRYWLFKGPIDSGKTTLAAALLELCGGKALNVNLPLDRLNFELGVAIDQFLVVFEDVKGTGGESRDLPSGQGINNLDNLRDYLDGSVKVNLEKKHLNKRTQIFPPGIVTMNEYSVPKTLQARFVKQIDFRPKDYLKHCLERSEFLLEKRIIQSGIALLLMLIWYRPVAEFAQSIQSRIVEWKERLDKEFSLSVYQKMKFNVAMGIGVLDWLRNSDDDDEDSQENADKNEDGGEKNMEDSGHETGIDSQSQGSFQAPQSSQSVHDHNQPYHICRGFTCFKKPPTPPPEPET

Streptococcus = test: Group A Streptococcus viability loss, dose response, counter-screen for streptokinase expression inhibitor project, luminescence, BacTiterGlo (AID 1915); type: functional, organism-based;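 note: potency for reduction of bacterial viability or growth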
[2] = target: T1, Mannose-6-phosphate isomerase (Homo sapiens, UniProt P34949); test: PMI enzyme inhibitors, confirmation, biochemical, fluorescence intensity (AID 1535)
T1 sequence (P34949 whole entry): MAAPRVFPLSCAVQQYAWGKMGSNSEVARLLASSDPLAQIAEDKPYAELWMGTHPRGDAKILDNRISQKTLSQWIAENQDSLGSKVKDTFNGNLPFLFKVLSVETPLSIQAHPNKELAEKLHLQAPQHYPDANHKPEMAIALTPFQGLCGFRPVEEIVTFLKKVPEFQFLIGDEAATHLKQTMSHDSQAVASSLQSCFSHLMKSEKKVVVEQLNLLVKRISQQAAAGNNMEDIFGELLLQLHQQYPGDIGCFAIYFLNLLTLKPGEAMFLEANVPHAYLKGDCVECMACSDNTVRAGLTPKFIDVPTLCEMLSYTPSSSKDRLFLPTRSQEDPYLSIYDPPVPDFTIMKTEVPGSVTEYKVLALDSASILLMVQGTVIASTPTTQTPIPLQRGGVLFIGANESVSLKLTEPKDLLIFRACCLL

[3] = target: DNA dC->dU-editing enzyme APOBEC-3G (Homo sapiens, UniProt Q9HC16); test: Dose Response confirmation of small molecule APOBEC3G DNA Deaminase Inhibitors via a fluorescence-based single-stranded DNA deaminase assay. [Related pubchem assays (depositor defined):AID493012, AID493028]; type: functional
Chain of DNA dC->dU-editing enzyme APOBEC-3G (Q9HC16 whole entry): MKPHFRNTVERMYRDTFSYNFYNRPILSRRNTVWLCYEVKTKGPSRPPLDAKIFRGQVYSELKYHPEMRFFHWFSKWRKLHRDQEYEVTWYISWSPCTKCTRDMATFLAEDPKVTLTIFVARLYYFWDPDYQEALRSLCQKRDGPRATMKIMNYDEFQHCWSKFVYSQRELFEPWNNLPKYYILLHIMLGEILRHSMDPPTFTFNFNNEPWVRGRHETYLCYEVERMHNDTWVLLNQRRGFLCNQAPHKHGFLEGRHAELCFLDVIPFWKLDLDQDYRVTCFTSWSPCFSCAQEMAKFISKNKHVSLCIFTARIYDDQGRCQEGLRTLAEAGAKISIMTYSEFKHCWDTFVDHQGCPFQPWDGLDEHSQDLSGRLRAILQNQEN

[4] = target: Eukaryotic translation initiation factor 4E (Mus musculus, UniProt P63073); test: eIF4E–eIF4G protein interaction inhibitors, dose response, biochemical, TR-FRET (AID 855); type: functional;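 note: potency for disrupting eIF4E binding to eIF4GI seen as loss of FRET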
Chain of Eukaryotic translation initiation factor 4E (P63073 whole entry): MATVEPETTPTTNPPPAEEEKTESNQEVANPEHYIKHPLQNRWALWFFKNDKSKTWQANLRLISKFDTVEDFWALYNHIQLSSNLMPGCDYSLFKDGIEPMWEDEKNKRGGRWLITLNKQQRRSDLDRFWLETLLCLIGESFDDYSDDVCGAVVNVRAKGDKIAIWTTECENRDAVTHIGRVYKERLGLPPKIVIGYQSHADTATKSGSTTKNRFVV

[5] = Counterscreen for IDE inhibitors: Luminescence-based cell-based high throughput dose response assay to identify compounds that are cytotoxic to HEK cells. [Related pubchem assays: 434962 (Primary screen (IDE inhibitors in singlicate)), 449730 (Counterscreen (Cytotoxicity in triplicate)), 435028 (Confirmation (IDE inhibitors in triplicate)) …; type: functional; conditions: HEK293
[6] = test system: Streptococcus sp. 'group A'; test: growth inhibition of control SK(-) GAS strain, dose response, counter-screen for streptokinase expression inhibitor project, luminescence, kanamycin, BacTiterGlo, confirmation (AID 1900); type: functional, organism-based
[7] = target: T2, Phosphoethanolamine/phosphocholine phosphatase (Homo sapiens, UniProt Q8TCT1); test: SAR assay for compounds that inhibit PHOSPHO1. [Related pubchem assays (depositor defined):AID1545, AID1565, AID1574]
T2 sequence (Q8TCT1 whole entry): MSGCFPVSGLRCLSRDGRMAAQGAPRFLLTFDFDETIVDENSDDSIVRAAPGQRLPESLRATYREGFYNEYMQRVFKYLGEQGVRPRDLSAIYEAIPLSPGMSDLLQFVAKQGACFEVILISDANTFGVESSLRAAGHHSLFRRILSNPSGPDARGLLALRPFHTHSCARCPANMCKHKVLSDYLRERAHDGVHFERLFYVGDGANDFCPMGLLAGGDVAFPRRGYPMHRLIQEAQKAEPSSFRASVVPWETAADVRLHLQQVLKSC

Phosphomannomutase 2 = target: T3, Phosphomannomutase 2 (Homo sapiens, UniProt O15305); test: Counter screen SAR assay for PMM2 inhibitors via a fluorescence intensity assay. [Related pubchem assays (depositor defined):AID1545, AID1574]
T3 sequence (O15305 whole entry): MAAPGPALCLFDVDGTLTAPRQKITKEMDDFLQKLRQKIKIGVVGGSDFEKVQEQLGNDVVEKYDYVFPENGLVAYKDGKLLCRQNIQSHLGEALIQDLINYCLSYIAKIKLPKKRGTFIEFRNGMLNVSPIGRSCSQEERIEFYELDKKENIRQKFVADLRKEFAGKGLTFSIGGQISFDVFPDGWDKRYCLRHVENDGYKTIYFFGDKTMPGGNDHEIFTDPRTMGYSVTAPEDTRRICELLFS

[8] = target: DNA dC->dU-editing enzyme APOBEC-3A (Homo sapiens, UniProt P31941); test: APOBEC3A DNA deaminase inhibitors, dose response, biochemical (AID 504722); type: functional
Chain of DNA dC->dU-editing enzyme APOBEC-3A (P31941 whole entry): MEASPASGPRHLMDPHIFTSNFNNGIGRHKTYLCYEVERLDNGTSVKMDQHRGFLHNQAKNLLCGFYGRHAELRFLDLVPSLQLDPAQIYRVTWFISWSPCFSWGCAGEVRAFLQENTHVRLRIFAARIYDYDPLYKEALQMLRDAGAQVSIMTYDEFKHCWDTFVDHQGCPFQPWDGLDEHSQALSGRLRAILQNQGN

Streptokinase A = target: T4, Streptokinase A (Streptococcus pyogenes serotype M1, UniProt P10520); test: S. pyogenes streptokinase expression inhibitors, potency, dose response, plasminogen activation absorbance, OD405 (AID 1914); type: functional, Streptococcus pyogenes M1 GAS;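 note: secreted streptokinase activity via plasminogen activation per viability signal from cell pellet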
T4 sequence (P10520 whole entry): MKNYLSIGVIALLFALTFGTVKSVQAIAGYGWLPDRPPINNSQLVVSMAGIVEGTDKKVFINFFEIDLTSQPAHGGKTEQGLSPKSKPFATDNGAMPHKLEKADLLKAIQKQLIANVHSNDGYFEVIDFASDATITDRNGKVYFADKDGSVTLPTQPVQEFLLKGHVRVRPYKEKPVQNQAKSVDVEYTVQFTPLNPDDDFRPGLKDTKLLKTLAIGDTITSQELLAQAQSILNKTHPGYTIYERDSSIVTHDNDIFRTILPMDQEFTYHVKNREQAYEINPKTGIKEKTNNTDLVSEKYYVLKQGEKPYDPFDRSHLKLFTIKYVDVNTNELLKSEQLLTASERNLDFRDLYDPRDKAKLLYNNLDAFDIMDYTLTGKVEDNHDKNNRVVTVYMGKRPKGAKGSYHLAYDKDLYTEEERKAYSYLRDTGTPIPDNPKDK

Insulin-degrading enzyme = Insulin-degrading enzyme (Homo sapiens, UniProt P14735); test: Dose Response: Fluorescence polarization-based cell-based high throughput dose response assay for inhibitors of insulin-degrading enzyme (IDE). [Related pubchem assays: 434962 (Primary screen (IDE inhibitors in singlicate)), 449730 (Counterscreen (Cytotoxicity in triplicate)), 435028 (Confirmation (IDE inhibitors in triplicate)), 434984 (Summary …; type: functional
Chain of Insulin-degrading enzyme (P14735 whole entry): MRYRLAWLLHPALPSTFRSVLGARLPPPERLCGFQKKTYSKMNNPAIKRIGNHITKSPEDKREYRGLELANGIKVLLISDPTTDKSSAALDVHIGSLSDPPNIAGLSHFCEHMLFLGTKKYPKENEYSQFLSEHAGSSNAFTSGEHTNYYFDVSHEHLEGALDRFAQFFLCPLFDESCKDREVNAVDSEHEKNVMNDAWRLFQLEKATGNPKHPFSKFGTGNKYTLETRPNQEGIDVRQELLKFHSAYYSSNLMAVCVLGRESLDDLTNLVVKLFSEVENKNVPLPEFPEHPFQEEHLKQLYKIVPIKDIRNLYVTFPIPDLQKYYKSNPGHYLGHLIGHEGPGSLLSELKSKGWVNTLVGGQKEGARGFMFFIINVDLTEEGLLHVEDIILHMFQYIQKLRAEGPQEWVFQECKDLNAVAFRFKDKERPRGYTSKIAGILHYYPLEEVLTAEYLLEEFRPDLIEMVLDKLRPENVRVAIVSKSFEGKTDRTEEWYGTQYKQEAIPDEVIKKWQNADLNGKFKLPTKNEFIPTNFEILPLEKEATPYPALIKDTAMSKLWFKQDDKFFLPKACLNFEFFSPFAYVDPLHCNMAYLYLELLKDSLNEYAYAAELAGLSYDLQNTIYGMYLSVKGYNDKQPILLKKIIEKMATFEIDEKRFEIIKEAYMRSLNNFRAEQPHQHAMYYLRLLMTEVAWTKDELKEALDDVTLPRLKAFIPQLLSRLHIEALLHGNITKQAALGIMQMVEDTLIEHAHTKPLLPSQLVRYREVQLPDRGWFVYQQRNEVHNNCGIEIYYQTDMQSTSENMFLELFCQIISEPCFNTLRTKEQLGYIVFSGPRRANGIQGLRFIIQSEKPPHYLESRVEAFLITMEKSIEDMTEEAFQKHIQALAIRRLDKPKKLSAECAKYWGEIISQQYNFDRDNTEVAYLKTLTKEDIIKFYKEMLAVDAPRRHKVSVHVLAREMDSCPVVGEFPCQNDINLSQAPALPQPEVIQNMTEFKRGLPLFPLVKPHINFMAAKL

Bcl-2-like protein 10 = Bcl-2-like protein 10 (Homo sapiens, UniProt Q9HD36); test: displacers of TR3 peptide from Bcl-B, primary screen, selectivity assay for Bfl-1 inhibitor project, biochemical, fluorescence polarization, FITC-TR3 peptide (AID 748);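 note: fluorescence polarization from a fluorescein-labelled TR3 peptide binding purified Bcl-B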
Chain of Bcl-2-like protein 10 (Q9HD36 whole entry): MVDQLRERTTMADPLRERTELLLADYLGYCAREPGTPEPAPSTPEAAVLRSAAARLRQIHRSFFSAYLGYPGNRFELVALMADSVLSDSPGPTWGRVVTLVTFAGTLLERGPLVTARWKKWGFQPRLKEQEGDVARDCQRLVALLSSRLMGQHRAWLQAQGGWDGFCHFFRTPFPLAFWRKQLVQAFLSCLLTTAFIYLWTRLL

CAAX prenyl protease 2 = CAAX prenyl protease 2 (Saccharomyces cerevisiae S288c, UniProt Q03530); type: biochemical
Chain of CAAX prenyl protease 2 (Q03530 whole entry): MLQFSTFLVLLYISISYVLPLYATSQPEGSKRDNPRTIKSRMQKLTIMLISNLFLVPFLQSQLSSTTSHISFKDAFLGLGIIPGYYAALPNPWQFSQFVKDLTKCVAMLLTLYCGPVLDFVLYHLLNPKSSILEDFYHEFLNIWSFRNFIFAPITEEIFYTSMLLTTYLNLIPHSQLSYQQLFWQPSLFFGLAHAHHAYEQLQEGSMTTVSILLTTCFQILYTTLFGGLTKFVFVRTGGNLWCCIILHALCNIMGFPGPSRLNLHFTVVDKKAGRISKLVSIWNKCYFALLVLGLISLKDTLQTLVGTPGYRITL

cells = type: functional, cell-based
[9] = target: T5, Nuclear receptor subfamily 0 group B member 1 (Homo sapiens, UniProt P51843); type: functional, cell-based;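 note: HEK293T cells transfected with SF-1 and DAX-1 plus StAR promoter luciferase reporter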
T5 sequence (P51843 whole entry): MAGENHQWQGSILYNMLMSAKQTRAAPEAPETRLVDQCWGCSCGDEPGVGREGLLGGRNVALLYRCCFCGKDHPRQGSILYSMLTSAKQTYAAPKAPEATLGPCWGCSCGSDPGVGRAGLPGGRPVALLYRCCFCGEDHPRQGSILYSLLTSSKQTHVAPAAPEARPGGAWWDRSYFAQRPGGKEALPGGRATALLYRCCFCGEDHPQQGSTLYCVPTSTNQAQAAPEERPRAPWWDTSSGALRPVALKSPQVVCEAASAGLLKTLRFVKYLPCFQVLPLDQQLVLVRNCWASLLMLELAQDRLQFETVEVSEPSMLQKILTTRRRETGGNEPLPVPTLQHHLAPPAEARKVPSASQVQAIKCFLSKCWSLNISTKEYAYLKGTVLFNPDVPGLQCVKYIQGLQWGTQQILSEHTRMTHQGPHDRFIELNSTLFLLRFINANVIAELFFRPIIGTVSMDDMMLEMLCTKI

HeLa = test: HeLa cell cytotoxicity, dose response, cytotoxicity control for MITF activator project, CellTiter-Glo luminescence, cherry-pick samples (AID 540259); type: functional, cell-based; conditions: Homo sapiens

Chain of G-protein coupled receptor 55 (Q9Y2T6 whole entry): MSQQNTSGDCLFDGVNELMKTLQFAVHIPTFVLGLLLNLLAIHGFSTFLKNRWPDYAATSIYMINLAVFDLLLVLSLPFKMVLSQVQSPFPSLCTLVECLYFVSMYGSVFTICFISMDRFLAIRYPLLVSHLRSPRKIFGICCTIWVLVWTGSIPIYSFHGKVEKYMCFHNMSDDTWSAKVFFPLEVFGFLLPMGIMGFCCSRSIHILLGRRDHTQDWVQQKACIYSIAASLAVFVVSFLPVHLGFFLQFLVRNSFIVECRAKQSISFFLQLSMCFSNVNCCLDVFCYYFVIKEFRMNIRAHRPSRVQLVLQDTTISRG

Compound: COc1ccc(N(CC(=O)Nc2nc3ccc(C)cc3s2)S(=O)(=O)c2c(C)nn(C)c2C)cc1
- IC50 [1]: 2.04 µM (active)

Compound: O=c1c2ccccc2sn1-c1cc(S(=O)(=O)N2CCOCC2)ccc1N1CCOCC1
- IC50 (Large T antigen): 13.2 µM (active)
- EC50 (Streptococcus): > 150 µM (not active)
- IC50 [2]: 2.6 µM (active)
- IC50 [3]: 14 µM (active)
- IC50 [4]: 5.36 µM (active)
- IC50 [5]: 11 µM (not active)
- EC50 [6]: 10.2 µM (active)
- IC50 [7]: 1.27 µM (inactive)
- IC50 (Phosphomannomutase 2): 9.87 µM (active)
- IC50 [8]: > 100 µM (inactive)
- EC50 (Streptokinase A): > 150 µM (not active)
- IC50 (Insulin-degrading enzyme): 1.44 µM (active)

Compound: COc1ccc(NC(=O)C2CCN(c3nc(C)nc4c3CCC4)CC2)cc1
- IC50 (Bcl-2-like protein 10): 33.8 µM (active)

Compound: COc1ccc(NS(=O)(=O)c2ccc3oc(=O)c4[nH]c(=O)c(=O)n(C)c4c3c2)cc1
- AC50 (CAAX prenyl protease 2): 22.7 µM (active)

Compound: c1ccc(-c2nc(-c3nccc4ccccc34)oc2-c2ccccc2)cc1
- IC50 (cells): > 67.5 µM (inactive)
- EC50 (Streptococcus): > 150 µM (not active)
- EC50 [6]: > 150 µM (not active)
- EC50 (Streptokinase A): 5.23 µM (active)
- IC50 [1]: 3.48 µM (active)
- IC50 [9]: > 67.5 µM (inactive)
- AC50 (HeLa): 132 µM (active)
